Assays:
[1] = test system: U937 human tumor xenografts; assay: In vivo antitumor assay, U937 xenograft model; conditions: for Body weight loss compared with the control group (toxicity): oral, MS275 50 mg/kg/day, 11a 100 mg/kg/day
[2] = test system: acetylated histone H3, acetylated histone H4, procaspase-3, cleaved caspase-3 and cleaved PARP; assay: Western blot analysis in HL60 cells; assay type: cell-based, human; conditions: 48 h treatment
[3] = Lip-water partition coefficient; assay type: physicochemical; conditions: compound concentration in n-octyl alcohol 5 mM
[4] = Intracellular fluid concentration; assay type: in vitro ADME; conditions: preliminary results, data not shown
[5] = test system: HCT116 human tumor xenografts; assay: In vivo antitumor assay, HCT116 xenograft model; conditions: oral, 11a 100 mg/kg, SAHA 100 mg/kg, MS275 50 mg/kg

Row | Structure (SMILES) | Body weight loss compared with the control group (toxicity) [1] | Level of acetylated histone H3 and acetylated histone H4 (western blot) [2] | Levels of procaspase-3, cleaved caspase-3 and cleaved PARP (western blot) [2] | Detection in water phase in LogP test (water solubility) [3] | Intracellular fluid concentration, times lower than 11a [4] | Body weight loss ([1]; first experiment, 100 mg/kg/day oral, three days later) | Body weight loss compared with the control group [5]
1 | COc1ccc(C(=O)N[C@@H](Cc2c[nH]c3ccccc23)C(=O)NCc2ccc(C(=O)Nc3ccccc3N)cc2)cc1 [Compound 11a, (S)-4-((3-(1H-indol-3-yl)-2-(4-methoxybenzamido)propanamido)methyl)-N-(2-aminophenyl)benzamide] | This toxicity didn’t appear | markedly increase | dramatically reduced the level of procaspase-3 and increased the level of cleaved caspased-3 and cleaved PARP |  |  |  | 
2 | COc1ccc(C(=O)N[C@@H](Cc2c[nH]c3ccccc23)C(=O)NCc2ccc(C(=O)Nc3cc(-c4ccccc4)ccc3N)cc2)cc1 [Compound 56c, (S)-4-((3-(1H-indol-3-yl)-2-(4-methoxybenzamido)propanamido)methyl)-N-(4-amino-[1,1’-biphenyl]-3-yl)benzamide] |  | much less effects | could be hardly affected | could hardly detect 56c in water phase | more than 10 times |  | 
3 | Nc1ccccc1NC(=O)c1ccc(CNC(=O)OCc2cccnc2)cc1 [MS275] | obvious body weight loss |  | dramatically reduced the level of procaspase-3 and increased the level of cleaved caspased-3 and cleaved PARP |  |  | serious body weight loss | serious body weight loss was observed

— paper PMC5994920 (European journal of medicinal chemistry, 2017)
